Results taken from US9957226B2, “Antimicrobial compounds” (AKTHELIA PHARMACEUTICALS, priority 2013, dated 2018).
“Also recorded” adds a separate entry of the source. Like-named read-outs stand apart in the source and are kept apart here.

How the values were obtained:
CAMP gene [1] = assay: Fold induction assay in the MN8CampLuc reporter cell line (luciferase coupled to CAMP gene); assay type: cell-based, human; conditions: for Fold induction (as luciferase activity): cells pre-differentiated by treatment with galactose, FIG. 4 and FIG. 5
Protocol: MN8CampLuc cells were handled according to Nylen et. al. with the following exception when predifferention of cells were performed before induction: […]

histone deacetylases = conditions: average of assays reported in PubChem, FIG. 4 right panel; cited from earlier work
CAMP gene [2] = assay: RT-PCR of CAMP gene expression in parental HT-29 cell line; assay type: cell-based, human
Protocol: RT-PCR experiments were performed according to Nylen et. al. (Nylén F, Miraglia E, Cederlund A, Ottosson H, Stromberg R, Gudmundsson G H, Agerberth B. 2013. Boosting innate immunity: Development and validation of a cell-based screening assay to identify LL-37 inducers. Innate Immun.).

[3] = system: autophagy-related genes Beclin-1 and AtgS; assay: RT-PCR of autophagy marker genes in HEK-293 cells; assay type: cell-based; conditions: for Expression of autophagy-related genes Beclin-1 and AtgS: 24 hrs, PBA 2 mM, compound 5 10 μM, Rapamycin 100 nM, FIG. 9 upper panel
Protocol: (§1) RT-PCR experiments for expression of marker genes for autophagy in HEK-293 cells were measured by real-time PCR. Data were normalized by the expression of the 18s rRNA housekeeping gene. For the immunofluorescence spectroscopy experiments HEK-293 cells were fixed after treatment with the inducers or control. The cells were then stained with DAPI to visualize the nuclei (blue), and immunolabeled with the anti-LC3, followed by the addition of Alexa-fluor 488 (green). Scale bar=10 μm.

LC3 = assay: Immunofluorescence of LC3 in HEK-293 cells; assay type: cell-based; conditions: 10 μM, 24 hrs, FIG. 9 lower panel
Protocol: as §1

[4] = MN8CampLuc reporter cell line, FIG. 6
[5] = MN8CampLuc reporter cell line, FIG. 2

CC(/C=C/C(=O)NO)=C\[C@@H](C)C(=O)c1ccc(N(C)C)cc1 [Compound 19, Trichostatin A]
Fold induction (as luciferase activity) (CAMP gene [1]; MN8CampLuc): much less fold induction than compound 5 | HDAC inhibition (known IC50 values) compared with compound 5 (histone deacetylases): considerably more powerful HDAC inhibitors

COc1ccc(CNc2ccccc2N)cc1 [Compound 16, N-(4-Methoxybenzyl)-1,2-benzenediamine]
Fold induction (as luciferase activity) (CAMP gene [1]; MN8CampLuc): at a cost of inducing ability

NCCNC(=O)c1ccccc1 [Compound 17, N-(2-aminoethyl)-benzamide]
Fold induction (as luciferase activity) (CAMP gene [1]; MN8CampLuc): abolition of induction; also recorded: complete or significant loss of the induction ability

Nc1ccccc1NC(=O)c1ccc(CNC(=O)OCc2cccnc2)cc1 [Compound 5, Pyridin-3-ylmethyl (4-((2-aminophenyl)-carbamoyl)benzyl)carbamate]
Induction in combination with VitD (CAMP gene [1]; [4]): synergistic effect; also recorded: Synergism with Vitamin D | Induction on co-incubation with PBA (13) (CAMP gene [1]; [4]): reduces entinostat-elicited induction | Inducing concentration lower than that of PBA (CAMP gene [1]; MN8CampLuc, 0.625-5 μM vs PBA 2-4 mM): about 3 orders of magnitude | Concentration required for induction (CAMP gene [1]; MN8CampLuc, FIG. 2): lowest concentration; also recorded: effective already at μM concentrations | Induction compared with PBA (13) at 2-4 mM (CAMP gene [1]; MN8CampLuc, compound 5 at 0.625-5 μM, FIG. 2): considerably higher | Induction of the CAMP gene at mRNA level (RT-PCR) (CAMP gene [2]; HT29 parental cells, FIG. 7): induces the CAMP gene; also recorded: enhanced transcription of the CAMP gene | Induction of the CAMP gene at mRNA level in combination with Vitamin D (CAMP gene [2]; HT29 parental cells, FIG. 7): synergy with Vitamin D; also recorded: synergism with Vitamin D | CAMP gene expression (mRNA), time course (CAMP gene [2]; HT-29 cells, 4 and 8 h, FIG. 8): did not induce | CAMP gene expression (mRNA), time course (CAMP gene [2]; HT-29 cells, 24 and 48 h, FIG. 8): induction was prominent | Expression of autophagy-related genes Beclin-1 and AtgS [3]: increased expression | Expression of autophagy-related genes Beclin-1 and AtgS ([3]; listed as Entinostat): upregulate the expression | Autophagy ([3]; marker genes and LC-3, FIG. 9): induce autophagy; also recorded: stimulates autophagy | LC3 expression in its membrane form (LC3-II) (LC3): upregulate

CN(C)c1ccc(NC(=O)CCCC(=O)Nc2ccccc2N)cc1 [Compound 9, N^1-(2-aminophenyl)-N^5-(4-(dimethylamino)-phenyl)glutaramide]
Fold induction of the CAMP gene (LL-37-luciferase) (CAMP gene [1]; [5]): at a cost of inducing ability

O=C(Nc1ccccc1O)c1ccccc1 [Compound 14, N-(2-Hydroxyphenyl) benzamide]
Fold induction of the CAMP gene (LL-37-luciferase) (CAMP gene [1]; [5]): virtually no induction; also recorded: complete or significant loss of the induction ability

Nc1ccccc1NC(=O)c1ccccc1 [Compound 1, N-(2-Aminophenyl)benzamide]
Concentration required for induction (CAMP gene [1]; MN8CampLuc, FIG. 2): slightly higher concentration

COC(=O)Cn1cc(C(=O)NCc2ccc(C(=O)Nc3ccccc3N)cc2)nn1 [Compound 6, Methyl 2-(4-((4-((2-aminophenyl)carbamoyl)benzyl)carbamoyl)-1 H-1,2,3-triazol-1-yl)acetate]
Concentration required for induction (CAMP gene [1]; MN8CampLuc, FIG. 2): slightly higher concentration

COc1ccc(C(=O)Nc2ccccc2N)cc1 [Compound 2, N-(2-Aminophenyl)-4-methoxybenzamide]
Concentration required for induction (CAMP gene [1]; MN8CampLuc, FIG. 2): slightly higher concentration

COc1ccccc1NC(=O)c1ccccc1 [Compound 15, N-(2-methoxyphenyl)benzamide]
Fold induction of the CAMP gene (LL-37-luciferase) (CAMP gene [1]; [5]): virtually no induction; also recorded: complete or significant loss of the induction ability

Nc1ccccc1NC(=O)c1ccc(CNC(=O)OCc2ccccc2)cc1 [Compound 4, Benzyl (4-((2-aminophenyl)carbamoyl)-benzyl)carbamate]
Concentration required for induction (CAMP gene [1]; MN8CampLuc, FIG. 2): slightly higher concentration

O=C(CCCCCCC(=O)Nc1ccccc1)NO [Compound 12, N1-hydroxy-N8-phenyloctanediamide]
Fold induction (as luciferase activity) (CAMP gene [1]; MN8CampLuc): much less fold induction than compound 5 | Fold induction of the CAMP gene (CAMP gene [1]; MN8CampLuc, with and without pre-differentiation of cells by galactose, FIG. 3): little induction; also recorded: poor inducer

COc1ccc(C(=O)NCCN)cc1 [Compound 18, N-(2-aminoethyl)-4-methoxybenzamide]
Fold induction (as luciferase activity) (CAMP gene [1]; MN8CampLuc): abolition of induction; also recorded: complete or significant loss of the induction ability

Phenylbutyrate [Compound 13]
Fold induction of the CAMP gene (LL-37-luciferase) (CAMP gene [1]): considerably lower induction | CAMP gene expression (mRNA), course over time (CAMP gene [2]; HT-29 cells, FIG. 8): gradual increase of the CAMP gene expression | Expression of autophagy-related genes Beclin-1 and AtgS [3]: increased expression

O=C(NCc1ccc(C(=O)O)cc1)OCc1cccnc1 [Compound 11, 4-((((pyridin-3-ylmethoxy)carbonyl)amino)methyl)benzoic acid]
Fold induction of the CAMP gene (LL-37-luciferase) (CAMP gene [1]; [5]): virtually no induction; also recorded: complete inactivity
